{"source": "paper PMC5464344", "about": "“Analgesic and anti‐inflammatory properties of novel, selective, and potent EP4 receptor antagonists” (Pharmacology Research & Perspectives, 2017)", "key": {"[1]": {"test_system": "dogs with osteoarthritis", "set-up": "method as in Rausch‐Derra et al. 2016", "settings": "prospective placebo controlled study, ref Rausch‐Derra et al. 2016; cited from earlier work"}, "[2]": {"molecular_target": "T1, human EP1 receptor (Homo sapiens, UniProt P34995)", "T1 construct": "membrane preparation", "T1 sequence (P34995 1-402)": "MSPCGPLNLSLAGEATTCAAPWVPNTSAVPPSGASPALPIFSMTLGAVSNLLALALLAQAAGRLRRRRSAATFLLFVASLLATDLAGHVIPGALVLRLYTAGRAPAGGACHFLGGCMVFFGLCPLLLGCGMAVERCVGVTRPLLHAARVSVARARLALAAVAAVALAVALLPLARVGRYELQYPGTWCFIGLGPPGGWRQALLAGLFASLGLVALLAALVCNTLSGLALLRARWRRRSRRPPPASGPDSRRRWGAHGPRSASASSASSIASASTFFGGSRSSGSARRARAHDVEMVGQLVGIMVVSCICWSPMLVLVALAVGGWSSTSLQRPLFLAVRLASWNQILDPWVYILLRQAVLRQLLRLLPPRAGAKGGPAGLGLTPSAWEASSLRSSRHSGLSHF", "assay": "[3H]-PGE2 receptor binding assay, EP1 membranes", "experimental": "(§1) Receptor binding assays were done using membrane preparations of HEK 293 cells transfected with various prostanoid receptors using previously published procedure (Nakao et al. 2007). EP1 and EP4 membranes were prepared from recombinant HEK293 cells stably expressing human EPl receptor (GenBank Accession # AY275470, Clone ID PER0100000, UMR cDNA Resource Center, Rolla, MO) or human EP4 receptor. EP2 and EP3 membranes were prepared from HEK293 cells transiently transfected with human EP2 receptor (GenBank Accession # AY275471, Clone ID PER0200000, UMR cDNA Resource Center, Rolla, MO) or human EP3 receptor (GenBank Accession # AY429108, Clone ID PER3VI0000, UMR cDNA Resource Center, Rolla, MO) plasmids. Frozen cell pellets were homogenized in homogenization buffer (10 mmol/L Tris‐HCl, pH7.4, 250 mmol/L sucrose, 1 mmol/L EDTA, 0.3 mmol/L indomethacin and protease inhibitor cocktail with EDTA (Roche Molecular Biochemicals, catalog # 1691498)) using a Teflon/glass homogenizer. After a low speed centrifugation (200g for 15 min at 4°C) the supernatant was subjected to high speed centrifugation (30,000g for 60 min at 4°C). Membrane protein preparation was aliquoted and quick frozen on dry ice prior to storage at −80°C. […] Compounds were tested in a 96‐well format using a three‐fold dilution series to generate 10‐point curves. […] The binding reaction was performed in 200 μL MES buffer (10 mmol/L MES, pH 6.0, 10 mmol/L MgCl2, and l mmol/L EDTA) using polystyrene 96‐well plates. […] The membranes were harvested by filtration (TomTek harvester), washed four times with cold buffer (10 mmol/L MES, pH 6.0, 10 mmol/L MgCl2), dried in a 60°C oven, and the radioactivity was quantified as counts per min (CPM) using a TopCount detector. […] Data were analyzed using a 4‐parameter nonlinear logistic equation. K i Conversion from IC50 Values (K i = […] where [L] is the ligand concentration). Results are expressed as the geometric mean ± standard deviation or geometric mean ± standard error as noted."}, "[3]": {"molecular_target": "T2, Human EP4 (Homo sapiens, UniProt P35408)", "T2 sequence (P35408 whole entry)": "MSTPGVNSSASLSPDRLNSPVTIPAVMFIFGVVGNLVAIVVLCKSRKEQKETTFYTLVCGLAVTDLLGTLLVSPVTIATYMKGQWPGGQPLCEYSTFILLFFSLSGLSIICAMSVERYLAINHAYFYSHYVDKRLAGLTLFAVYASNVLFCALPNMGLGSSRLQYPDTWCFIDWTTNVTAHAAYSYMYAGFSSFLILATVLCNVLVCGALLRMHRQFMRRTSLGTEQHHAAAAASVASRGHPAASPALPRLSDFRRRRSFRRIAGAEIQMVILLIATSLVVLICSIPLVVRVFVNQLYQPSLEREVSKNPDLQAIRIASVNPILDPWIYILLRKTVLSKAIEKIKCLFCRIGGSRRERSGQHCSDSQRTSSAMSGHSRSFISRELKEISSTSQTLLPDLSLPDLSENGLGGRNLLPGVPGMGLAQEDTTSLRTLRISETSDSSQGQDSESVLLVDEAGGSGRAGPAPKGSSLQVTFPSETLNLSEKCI", "assay": "[3H]-PGE2 receptor binding assay, EP4 membranes", "set-up": "expressed in transfected cells; membrane preparation", "settings": "HEK293 membranes, geometric mean ± SEM, read-out: hEP1-4 receptor binding EP4 Ki", "experimental": "as §1"}, "[4]": {"molecular_target": "T3, human EP2 receptor (Homo sapiens, UniProt P43116)", "T3 construct": "host or cells: HEK293, transient; membrane preparation", "T3 sequence (P43116 whole entry)": "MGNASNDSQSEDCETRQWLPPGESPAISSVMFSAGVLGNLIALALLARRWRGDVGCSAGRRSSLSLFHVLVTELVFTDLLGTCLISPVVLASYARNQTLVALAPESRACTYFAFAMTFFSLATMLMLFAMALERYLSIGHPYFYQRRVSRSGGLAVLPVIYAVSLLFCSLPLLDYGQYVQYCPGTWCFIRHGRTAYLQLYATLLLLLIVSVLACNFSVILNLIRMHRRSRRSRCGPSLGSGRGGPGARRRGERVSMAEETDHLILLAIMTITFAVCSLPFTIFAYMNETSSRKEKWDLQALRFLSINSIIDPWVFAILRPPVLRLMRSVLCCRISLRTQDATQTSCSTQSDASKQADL", "assay": "[3H]-PGE2 receptor binding assay, EP2 membranes", "settings": "HEK293 membranes; [3H]-PGE2; geometric mean ± SEM; read-out: hEP1-4 receptor binding EP2 Ki", "experimental": "as §1"}, "[5]": {"molecular_target": "T4, Rat EP4 (Rattus norvegicus, UniProt P43114)", "T4 construct": "expressed in transfected cells", "T4 sequence (P43114 whole entry)": "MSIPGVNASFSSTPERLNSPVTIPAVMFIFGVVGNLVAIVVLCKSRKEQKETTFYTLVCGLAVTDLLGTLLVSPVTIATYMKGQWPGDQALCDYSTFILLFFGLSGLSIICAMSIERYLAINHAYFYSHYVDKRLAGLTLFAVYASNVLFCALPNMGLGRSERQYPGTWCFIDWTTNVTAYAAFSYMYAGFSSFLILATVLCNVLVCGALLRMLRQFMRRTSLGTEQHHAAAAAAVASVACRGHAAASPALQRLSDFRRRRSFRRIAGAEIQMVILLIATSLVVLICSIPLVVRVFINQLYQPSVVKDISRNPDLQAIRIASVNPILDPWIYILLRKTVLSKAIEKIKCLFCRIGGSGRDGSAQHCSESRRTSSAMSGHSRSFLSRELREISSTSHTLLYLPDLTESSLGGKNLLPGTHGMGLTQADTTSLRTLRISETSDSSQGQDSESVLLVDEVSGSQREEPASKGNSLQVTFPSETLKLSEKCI", "assay": "EP4 cAMP antagonist assay (HTRF), rat EP4", "type": "cell-based", "settings": "read-out: cAMP Antagonism Rat EP4 IC50", "experimental": "(§2) Human EP4 (GenBank Accession # AY429109, Clone ID PER0400000, UMR cDNA Resource Center, Rolla, MO) was stably expressed in HEK293 cells. Rat EP4 cDNA (GenBank Accession# NM_03276) was cloned into pcDNA 3.1 vector and stably transfected into HEK293 cells. The cell lines were maintained in DMEM (invitrogen) supplemented with 10% fetal bovine serum (FBS), 1 mmol/L sodium pyruvate, 10 mmol/L HEPES, 500 μg/mL geneticin and 2 mmol/L L‐glutamine. Confluent cultures were grown at 37°C in an atmosphere containing 5% CO2. Cells were harvested using 0.25% Trypsin‐ EDTA, suspended in freeze media at a density of 10^7cel1s/mL, and aliquots were stored in liquid nitrogen. Immediately prior to the assay, cells were thawed with DMEM and suspended in cAMP assay buffer (HBSS with 0.1% BSA, 20 mmol/L HEPES and 200 μmol/L IBMX).\n(§3) CJ‐023,423 served as the positive control. To measure the cAMP levels, cAMP‐d2 conjugate and anti cAMP‐cryptate conjugate in lysis buffer were incubated with the treated cells at room temperature for 1 h. The HTRF signal was detected using an EnVision plate reader (Perkin‐Elmer, Inc., Waltham, MA, USA.) to calculate the ratio of fluorescence at 665 to 620 nm. The raw data were converted to cAMP (nmol/L) using a cAMP standard curve generated for each experiment. Data were analyzed using a 4‐parameter nonlinear logistic equation. Results are expressed as the geometric mean ± standard deviation or geometric mean ± standard error as noted."}, "[6]": {"molecular_target": "T5, human EP3 receptor (Homo sapiens, UniProt P43115)", "T5 sequence (P43115 1-359 limits assumed)": "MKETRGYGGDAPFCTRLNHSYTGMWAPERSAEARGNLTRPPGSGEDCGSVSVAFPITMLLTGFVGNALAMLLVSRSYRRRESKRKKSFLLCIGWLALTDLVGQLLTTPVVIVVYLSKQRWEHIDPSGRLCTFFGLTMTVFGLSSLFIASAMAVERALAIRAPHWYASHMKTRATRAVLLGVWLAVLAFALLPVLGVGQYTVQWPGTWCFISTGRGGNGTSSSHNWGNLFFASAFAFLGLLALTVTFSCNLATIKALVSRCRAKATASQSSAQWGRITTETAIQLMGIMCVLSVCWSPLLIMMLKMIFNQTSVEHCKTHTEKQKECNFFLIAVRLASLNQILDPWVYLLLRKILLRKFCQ", "assay": "[3H]-PGE2 receptor binding assay, EP3 membranes", "settings": "HEK293 membranes, geometric mean ± SEM, read-out: hEP1-4 receptor binding EP3 Ki", "experimental": "as §1"}, "[7]": {"molecular_target": "T2, Human EP4", "assay": "EP4 cAMP antagonist assay (HTRF), human EP4", "type": "cell-based", "settings": "HEK293 cells stably expressing human EP4; PGE2 at EC80; geometric mean ± SEM; read-out: cAMP Antagonism (hEP4) Human EP4 IC50", "experimental": "as §2, with “Cells were harvested using 0.25% Trypsin‐ EDTA, suspended in freeze media at a density of 10^7cel1s/mL, and aliquots were stored in liquid nitrogen.” left out\nas §3, with “To” for “CJ‐023,423 served as the positive control. To”, “The HTRF signal was detected using an EnVision plate reader (Perkin‐Elmer, Inc., Waltham, MA, USA.) to calculate the ratio of fluorescence at 665 to 620 nm.” left out"}, "[8]": {"molecular_target": "T2, Human EP4", "assay": "PGE2 stimulated cAMP production by HEK293/EP4 cell line", "type": "cell-based", "experimental": "as §2, with “Cells were harvested using 0.25% Trypsin‐ EDTA, suspended in freeze media at a density of 10^7cel1s/mL, and aliquots were stored in liquid nitrogen.” left out\nas §3, with “To” for “CJ‐023,423 served as the positive control. To”, “The HTRF signal was detected using an EnVision plate reader (Perkin‐Elmer, Inc., Waltham, MA, USA.) to calculate the ratio of fluorescence at 665 to 620 nm.” left out"}, "[9]": {"test_system": "female Lewis rats, collagen induced arthritis", "assay": "Type-II CIA model of inflammation and autoimmunity", "type": "in vivo", "settings": "rat CIA", "experimental": "(§4) For the monoiodoacetate (MIA) and adjuvant induced arthritis (AIA) studies, male Lewis rats (Envigo, Indianapolis, IN) of approximately 8 weeks of age at the time of disease induction were used. For collagen induced arthritis studies (CIA) female Lewis rats (Charles River) weighing 150–170 g were used. Rats were housed in groups of 2 or 3 per cage and maintained in a constant temperature, and on a 12 h light/12 h dark cycle. Animals had free access to food and water at all times except during data collection.\nOn day 1 of the study ankle widths are measured across the joint (left side to right side) at the thickest point with calipers and rats immunized intradermally near the base of the tail with 0.4 mL of 1 mg/mL type II collagen (Elastin Products) emulsified with incomplete Freund's adjuvant (Sigma Aldrich). A second booster injection booster of 0.4 mL of the collagen emulsion was given on day 8 of the study. Ankle widths were measured on day 8 before the collagen injection and every 2–3 days thereafter until study end. On day 11 rats were randomized into five groups of eight animals based on inflammation (redness and/or swelling) in their hind paws and body weight. Rats were then dosed with vehicle (10% Acacia plus 0.05% antifoam) and compound 3 at doses of 3, 10, and 30 mg/kg. Prednisolone was included at a dose of 10 mg/kg as a positive control. Dosing was by oral gavage once daily for seventeen days at a dose volume of 5 mL/kg. On day 28 rats were euthanized and hind paws and knee joints collected for histology. Ankles and knees were fixed in neutral buffered formalin, decalcified, embedded in paraffin, and sectioned according to standard histological methodology and the joints were then scored by a pathologist using published scoring criteria (Bendele 2001; Levine et al. 2014)."}, "[10]": {"test_system": "male Lewis rats, adjuvant induced arthritis", "assay": "AIA model of inflammation (paw swelling)", "type": "in vivo", "settings": "rat AIA; 10 mg/kg oral once daily 4 days; P < 0.05 by Dunnett's test", "experimental": "as §4\nOn Day 0, paw widths of both right and left paws were measured between the lateral and dorsal surfaces using calipers, and a mean paw thickness for each rat was calculated by averaging these measurements. Rats were then inoculated intradermally with 0.25 mg of adjuvant (M. Tuberculosis H37 RA from Difco) in 100 μL of mineral oil at the base of the tail to induce adjuvant disease. Eleven days post inoculation paw widths of both right and left paws were measured again, and the percent change from the Day 0 reading was calculated. […] On the fifth day after dosing started (day 15 post adjuvant injection) the rats were euthanized without further dosing and paw width measured again. The percent increase in mean paw thickness from day 11 to day 15 was then calculated as a measure of paw swelling which is indicative of the amount of inflammation in the paws measured. […]"}, "[11]": {"settings": "10 mg/kg oral once daily for seventeen days"}}, "note": "Where “and” joins values, the source holds several entries; their conditions need not be identical. Identical values can stand only once."}
{"smiles": "CCc1nc2c(C)nc(C)cc2n1-c1ccc(CCNC(=O)NS(=O)(=O)c2ccc(C)cc2)cc1", "note": "[CJ‐023,423, N‐[({2‐[4‐(2‐ethyl‐4, 6‐dimethyl‐1H‐imidazo [4, 5–c]pyridin‐1‐yl)phenyl]ethyl}amino)carbonyl]‐4‐methylbenzenesulfonamide, reference compound]", "values": [{"measurement": "efficacy for signs and symptoms of OA", "setting": "[1]", "result": "efficacious"}, {"measurement": "Ki", "setting": "[2]; HEK293 membranes, [3H]-PGE2, geometric mean ± SEM, read-out: hEP1-4 receptor binding EP1 Ki", "result": "> 22.9", "unit": "µM"}, {"measurement": "Ki", "setting": "[3]", "result": "449 ± 123", "unit": "nM"}, {"measurement": "Ki", "setting": "[4]", "result": "> 21.6", "unit": "µM"}, {"measurement": "IC50", "setting": "[5]", "result": "13.1 ± 1", "unit": "nM"}, {"measurement": "Ki", "setting": "[6]", "result": "> 19.5", "unit": "µM"}, {"measurement": "IC50", "setting": "[7]", "result": "12 nM and 11.7 nM"}]}
{"smiles": "CCCCC[C@H](O)/C=C/[C@H]1[C@H](O)CC(=O)[C@@H]1C/C=C\\CCCC(=O)O", "note": "[PGE2, Prostaglandin (PG) E2]", "values": [{"measurement": "EC80 cAMP production", "setting": "[8]; HEK 293 cells stably transfected with human EP4 cDNA, 20 min", "result": 0.34, "unit": "nmol/L"}, {"measurement": "EC80 cAMP production (Fig. 2A)", "setting": "[8]; HEK‐293 cells stably transfected with human EP4 cDNA, 20 min at room temperature", "result": 340, "unit": "pM"}]}
{"smiles": "CCCCC[C@H](O)/C=C/[C@H]1[C@H](O)CC(=O)[C@@H]1C/C=C\\CCCC(=O)O", "note": "[^3[H] PGE2]", "values": [{"measurement": "Kd", "setting": "[2]; read-out: ^3[H] PGE2 Binding/kd EP1, HEK 293 membranes, homologous competition (Fig. 3D)", "result": 5.62, "unit": "nM"}]}
{"smiles": "C[C@]12C=CC(=O)C=C1CC[C@@H]1[C@@H]2[C@@H](O)C[C@@]2(C)[C@H]1CC[C@]2(O)C(=O)CO", "note": "[prednisolone, Prednisolone]", "values": [{"measurement": "reduction in summed scores (ankle histology)", "setting": "[9]; [11]", "result": 93, "unit": "%"}, {"measurement": "reductions in all ankle scores (histology)", "setting": "[9]; [11]", "result": "87–99%"}, {"measurement": "ankle thickness", "setting": "[9]; 10 mg/kg oral once daily, data not shown", "result": "significant reduction"}, {"measurement": "knee joint histopathology (representative photomicrograph)", "setting": "[9]; Fig. 10 bottom panel, prednisolone 10 mg/kg, compound 3 dose not given", "result": "very minimal inflammation (S) and cartilage damage not visible at this magnification"}, {"measurement": "ankle joint histopathology (representative photomicrograph)", "setting": "[9]; Fig. 10 top panel, prednisolone 10 mg/kg, compound 3 dose not given", "result": "minimal inflammation (S) and minimal cartilage damage"}]}
{"smiles": "O=C(O)Cc1ccccc1Nc1c(Cl)cccc1Cl", "note": "[diclofenac, reference compound]", "values": [{"measurement": "increases in paw inflammation (swelling) compared to vehicle", "setting": "[10]", "result": "significantly inhibited"}]}
